Measured values: US20060183801A1, “Method of preventing or treating breast, prostate and/or cervical cancer with n, n-dimethylglycine” (FoodScience Corporation, priority 2002, published 2006)

How the values were obtained:
[1] = tested on: TNF-α secretion in THP-1 cell line; assay: Cytokine bioassay: TNF-α secretion by LPS-stimulated THP-1 cells (L-929 indicator cells); format: cell-based; settings: 100 mM DMG, 24 h, measured by L-929 cells (FIG. 2)
Description: (§1) Cytokine bioassays utilizing cell proliferation assays were performed to assess modulation of inflammatory cytokine production by DMG (House-Development in biological Standardization 1999 (97) 13-19). Supernatants from cytokine producing cell lines (untreated control and DMG treated), were added to responder cell lines specific for that cytokine. Proliferation or inhibition of these responder/indicator cells signal the extent of cytokine secreted by the producer cell lines. The optimum cell number/well for each cell line was determined after a titration assay. All suspension producer cell lines such at THP-1, Jurkat E6-1, EL-4 and U-937 were plated on 48 well plates in a concentration of 5×10^6 cells/well, where as adherent producer cells such as LS174T were plated at a concentration of 5×10^5 cells/well. Suspension responder cell lines (CTLL-2 and 7TD-1) were used at a concentration of 1×10^6 cells/well in a 96 well plate, whereas the adherent responder cell lines (L-929 and A375.S2) were plated at a concentration of 3×10^4 cells/well and 4×10^4 cells/well respectively. THP-1 cells, which secrete Tumor Necrosis Factor-alpha (TNF-α), when stimulated with lipopolysaccharide (LPS), were treated with increasing concentrations of DMG for a period of 24 hours at 37° C. in a humidified 5% CO2 incubator. […] Samples are read at 4 hours using a BIO-RAD benchmark microplate reader at 490 nm. […]

[2] = tested on: IL-1 secretion in U-937 cell line; assay: Cytokine bioassay: IL-1 secretion by U-937 cells (A375.S2 indicator cells); format: cell-based; settings: detected by decreased proliferation of A375.S2 (FIG. 3)
Description: as §1

[3] = tested on: IL-2 secretion in Jurkat E6-1 cell line; assay: Cytokine bioassay: IL-2 secretion by Jurkat E6-1 cells (CTLL-2 responder cells); format: cell-based, human
Description: as §1

[4] = tested on: IL-2 secretion in EL-4 cell line; assay: Cytokine bioassay: IL-2 secretion by EL-4 cells (CTLL-2 responder cells); format: cell-based, mouse
Description: as §1

[5] = tested on: IL-6 secretion in LS 174T cell line; assay: Cytokine bioassay: IL-6 secretion by LS 174T cells (7TD1 responder cells); format: cell-based; settings: 100 mM DMG, LS 174T (FIG. 6)
Description: as §1

[6] = tested on: TNF alpha secretion in peripheral blood mononuclear cells; assay: Cytokine bioassay: TNF-α secretion by stimulated PBMC (L-929 indicator cells); format: cell-based; settings: 100 mM DMG, PBMC stimulated with PMA and Ionomycin; L-929 indicator cells (FIG. 7)
Description: (§2) Heparinized peripheral blood from healthy control volunteers was collected and layered onto room temperature (RT) polysucrose sodium diatriazoate (Histopaque 1077, Sigma Chemical Co.) in 15-ml conical tubes. These were centrifuged at 400×g for 30 minutes. Mononuclear cells were collected and washed in 10-ml phosphate buffered saline (PBS). Following a 10 min centrifugation and 250×g, the PBS were decanted and the wash step repeated. Cells were counted in a hemocytometer and adjusted to 2×10^6 cells/ml. These cells were later used in cytokine bioassays, Co-culture and in flow cytometry. Modulation of inflammatory cytokine production in Peripheral Blood Mononuclear Cells (PBMC) by DMG, was determined by the use of cytokine bioassays. Supernatants of DMG treated and untreated PBMC which produce cytokines (producers) on stimulation with mitogens (PMA and/or lonomycin), were added to responder cell lines specific for the respective cytokine. Proliferation or inhibition of these indicator cells signal the extent of cytokine secretion by the producer cell lines. The optimum cell number/well for each cell line was determined after a titration assay. PBMC were plated on 48 well plates in a concentration of 5×10^6 cells/well. […] Samples are read at 4 hours using a BIO-RAD benchmark microplate reader at 490 nm. […]

[7] = tested on: IL-1 secretion in peripheral blood mononuclear cells; assay: Cytokine bioassay: IL-1 secretion by stimulated PBMC (A375.S2 responder cells); format: cell-based; settings: 100 mM DMG
Description: as §2

[8] = tested on: IL-2 secretion in peripheral blood mononuclear cells; assay: Cytokine bioassay: IL-2 secretion by stimulated PBMC (HT-2 responder cells); format: cell-based; settings: 100 mM DMG
Description: as §2

[9] = tested on: melanoma cells; assay: Co-culture proliferation assay: DMG treated stimulated Jurkat E6-1 with melanoma cells; format: cell-based; settings: PMA/Ionomycin stimulated Jurkat E6-1 in co-culture
Description: (§3) A proliferation assay was designed to determine the ability of DMG treated cytokine producing cells to inhibit growth of melanoma cell lines, breast cancer cell lines, a prostate cancer cell line, and cervical cancer cell lines. The cytokine bioassays utilizing cell proliferation assays were performed to assess modulation of inflammatory cytokine production by DMG. Cytokine bioassays are well known in the art. (Thorpe R: Developments in Biological Standardization 1999, 97:61-71 and Mire-Sluis AR: Journal of Immunological Methods 1995, 187 (2):191-199)
(§4) The cell lines and murine B16 as indicator cells were used to observe the modulating effects of DMG. The optimum cell number per well for each cell line was determined after titration assay. Stimulated and unstimulated cytokine producing cell lines (Jurkat e6-1, EL-4, MG-63 and U-937) were treated with DMG for 24 hours prior to culture with cancer cell lines. […]
(§5) A proliferation assay was designed to determine the ability of DMG treated cytokine producing cells to inhibit growth of human breast cancer cell lines MCF-7, BT-20 and T47D, human prostrate cancer PC-3 cell line, human cervical cancer Caski and SiHa cell lines and melanoma cell lines. […] The optimum cell number/well for each cell line was determined after a titration assay. […]

[10] = tested on: A375.S2 melanoma cells; assay: Co-culture proliferation assay: DMG treated U-937 with A375.S2 melanoma cells; format: cell-based, human; settings: DMG treated U-937 in co-culture
Description: as §3, §4, §5

[11] = tested on: melanoma cells; assay: Co-culture proliferation assay: DMG treated stimulated MG-63 with melanoma cells; format: cell-based; settings: DMG treated stimulated MG-63 (produces IFN-β) in co-culture
Description: as §3, §4, §5

[12] = tested on: A375.S2 melanoma cells; assay: Co-culture proliferation assay: DMG treated PBMC with A375.S2 melanoma cells; format: cell-based, human
Description: (§6) Heparinized peripheral blood from healthy control volunteers was collected and layered onto room temperature (RT) polysucrose sodium diatriazoate (Histopaque 1077, Sigma Chemical Co.) in 15-ml conical tubes. These were centrifuged at 400×g for 30 minutes. Mononuclear cells were collected and washed in 10-ml phosphate buffered saline (PBS). Following a 10 min centrifugation and 250×g, the PBS were decanted and the wash step repeated. Cells were counted in a hemocytometer and adjusted to 2×10^6 cells/ml. These cells were later used in cytokine bioassays, Co-culture and in flow cytometry.
(§7) A proliferation assay was designed to determine the ability of DMG treated cytokine producing cells to inhibit growth of human breast cancer cell lines MCF-7, BT-20 and T47D, human prostrate cancer PC-3 cell line, human cervical cancer Caski and SiHa cell lines and melanoma cell lines. Three melanoma cell lines, human A375.S2 and Hs 294T, and murine B16 as indicator cells were used to observe the modulating effects of DMG. The optimum cell number/well for each cell line was determined after a titration assay. Stimulated and unstimulated cytokine producing cell lines (Jurkat E6-1, EL-4, MG-63 and U-937) were treated with DMG for 24 hr prior to culture with melanoma cells. Similarly, PBMC were also treated with DMG and cultured with melanoma cells. […]

[13] = tested on: Hs 294T melanoma cells; assay: Co-culture proliferation assay: DMG treated PBMC with Hs 294T melanoma cells; format: cell-based; settings: Homo sapiens; PBMC treated with 100 mM DMG, Hs 294T co-culture (FIG. 14); read-out: inhibitory effect over controls (melanoma inhibition by PBMC)
Description: as §6, §7

[14] = tested on: T47D breast cancer cell line; assay: Co-culture proliferation assay: DMG treated Jurkat E6-1 with T47D breast cancer cells; format: cell-based, human; settings: Jurkat E6-1 treated with DMG 24 hours prior to culture (FIG. 18)
Description: as §3, §4, §5

[15] = tested on: MCF-7 breast cancer cells; assay: Co-culture proliferation assay: DMG treated Jurkat E6-1 with MCF-7 breast cancer cells; format: cell-based, human; settings: Jurkat E6-1 treated with DMG 24 hours prior to culture (FIG. 17)
Description: as §3, §4, §5

[16] = tested on: MCF-7 breast cancer cell line; assay: Co-culture proliferation assay: DMG treated stimulated PBMC with MCF-7 cells; format: cell-based, human; settings: DMG treated stimulated PBMC in co-culture (FIG. 19)
Description: as §6, §7

[17] = tested on: T47D breast cancer cell line; assay: Co-culture proliferation assay: DMG treated stimulated PBMC with T47D cells; format: cell-based, human; settings: DMG treated stimulated PBMC in co-culture (FIG. 20)
Description: as §6, §7

[18] = tested on: Caski human cervical carcinoma cells; assay: Co-culture proliferation assay: DMG treated Jurkat E6-1 with Caski cervical cells; format: cell-based; settings: Jurkat E6-1 treated with DMG 24 hours prior to culture (FIG. 22-23)
Description: as §3, §4, §5

[19] = tested on: SiHa human cervical carcinoma cells; assay: Co-culture proliferation assay: DMG treated Jurkat E6-1 with SiHa cervical cells; format: cell-based; settings: Jurkat E6-1 treated with DMG 24 hours prior to culture (FIG. 24-25)
Description: as §3, §4, §5

[20] = tested on: prostate adenocarcinoma cell line PC-3; assay: Co-culture proliferation assay: DMG treated stimulated PBMC with PC-3 prostate cells; format: cell-based, human; settings: DMG treated stimulated PBMC in co-culture (FIG. 26)
Description: as §6, §7

## CN(C)CC(=O)O [DMG, N,N-dimethylglycine]
[1]
  increase of TNF-α levels over baseline control levels: 7%
[2]; 10 mM DMG
  increase of IL-1 secretion: 4.5%
[2]; 100 mM DMG
  increase of IL-1 secretion: 6.5%
[3]; 10 mM DMG, Jurkat E6-1 (FIG. 4)
  increase of IL-2 secretion: 3%
[3]; 100 mM DMG, Jurkat E6-1 supernatant (FIG. 4)
  increase of IL-2 levels (increase in proliferation of CTLL-2): 10%
[4]; 10 mM DMG, EL-4 (FIG. 5)
  increase of IL-2 secretion: 2.5%
[4]; 100 mM DMG, EL-4 supernatant (FIG. 5)
  increase of IL-2 levels (increase in proliferation of CTLL-2): 6%
[5]
  increase of IL-6 production levels: 7%
[6]
  increase of TNF-α over stimulated baseline controls: 9%
[7]
  enhancement of IL-1 expression levels: 8%
[8]
  enhancement of IL-2 expression levels: 10%
[9]
  increased inhibition of melanoma cells over baseline stimulated control: 8%
[10]
  decrease in the proliferation of A375.S2 cells: 30%
[11]
  melanoma inhibition: increased level of melanoma inhibition
[12]; PBMC treated with 100 mM DMG, A375.S2 co-culture
  proliferation decrease in melanoma cell growth over stimulated baseline control: 17%
[12]; PBMC treated with increasing concentrations of DMG
  A375.S2 proliferation, dose dependence: Significant dose dependent reductions
[13]
  inhibition at 100000 µM: 13%
[14]
  inhibition of T47D cells: typical dose dependent effect
[15]
  inhibition of MCF-7 cells: dose dependent effect
[16]
  inhibition of MCF-7 cell line: dose response inhibition
[17]
  inhibition of T47D cell line: dose response inhibition
[18]
  inhibition of Caski cell line: dose response inhibition
[19]
  inhibition of SiHa cell line: dose response inhibition
[20]
  inhibition of PC-3 cell line: dose response inhibition
